Results taken from the supplement of paper PMC4862054.

Experiments:
Settings in all cases: incubation time: 72 h
[1] = system: Hs578T; test: normalised response (% of control), CellTiter-Glo; higher = more viable cells (100 = DMSO, 0 = benzethonium chloride kill control)
Description: (§1)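 DSRT, 72 h incubation, CellTox Green / CellTiter-Glo readout. Signal is normalised to DMSO and benzethonium chloride controls. Value is the normalised response at the highest dose.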

[2] = system: MDA-MB-231; test: as above
Description: as §1

[3] = system: CAL-148; test: as above
Description: as §1

[4] = system: BT-474; test: as above
Description: as §1

[5] = system: BT-549; test: as above
Description: as §1

[6] = system: HCC1599; test: as above
Description: as §1

[7] = system: SK-BR-3; test: as above
Description: as §1

[8] = system: MFM-223; test: as above
Description: as §1

[9] = system: CAL-51; test: as above
Description: as §1

[10] = system: MCF-10A; test: as above
Description: as §1

[11] = system: CAL-120; test: as above
Description: as §1

[12] = system: HCC1937; test: as above
Description: as §1

[13] = system: MDA-MB-436; test: as above
Description: as §1

[14] = system: CAL-85-1; test: as above
Description: as §1

[15] = system: HDQ-P1; test: as above
Description: as §1

[16] = system: MDA-MB-453; test: as above
Description: as §1

[17] = system: MDA-MB-468; test: as above
Description: as §1

[18] = system: HCC1143; test: as above
Description: as §1

[19] = system: DU-4475; test: as above
Description: as §1

[20] = system: Hs578T; test: normalised response (% of control), CellTox Green; higher = less cell death (100 = DMSO, 0 = benzethonium chloride kill control)
Outline: (§2)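 Normalised signals at single concentrations make up the values. They come from breast cancer cell lines seeded (20 µl suspension) into 384-well plates with compound at 5 concentrations in 10-fold steps over a compound-specific 10,000-fold range, incubated 72 h, and read for CellTox Green fluorescence then CellTiter-Glo luminescence. Each plate was normalised to 0.1 % DMSO (100) and a positive kill control (0).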

[21] = system: MDA-MB-231; test: as above
Outline: as §2

[22] = system: CAL-148; test: as above
Outline: as §2

[23] = system: BT-474; test: as above
Outline: as §2

[24] = system: BT-549; test: as above
Outline: as §2

[25] = system: HCC1599; test: as above
Outline: as §2

[26] = system: MFM-223; test: as above
Outline: as §2

[27] = system: CAL-51; test: as above
Outline: as §2

[28] = system: MCF-10A; test: as above
Outline: as §2

[29] = system: CAL-120; test: as above
Outline: as §2

[30] = system: HCC1937; test: as above
Outline: as §2

[31] = system: MDA-MB-436; test: as above
Outline: as §2

[32] = system: CAL-85-1; test: as above
Outline: as §2

[33] = system: HDQ-P1; test: as above
Outline: as §2

[34] = system: MDA-MB-453; test: as above
Outline: as §2

[35] = system: MDA-MB-468; test: as above
Outline: as §2

[36] = system: HCC1143; test: as above
Outline: as §2

[37] = system: DU-4475; test: as above
Outline: as §2

SMILES	normalised response [1] [%]	normalised response [2] [%]	normalised response [3] [%]	normalised response [4] [%]	normalised response [5] [%]	normalised response [6] [%]	normalised response [7] [%]	normalised response [8] [%]	normalised response [9] [%]	normalised response [10] [%]	normalised response [11] [%]	normalised response [12] [%]	normalised response [13] [%]	normalised response [14] [%]	normalised response [15] [%]	normalised response [16] [%]	normalised response [17] [%]	normalised response [18] [%]	normalised response [19] [%]	normalised response [20] [%]	normalised response [21] [%]	normalised response [22] [%]	normalised response [23] [%]	normalised response [24] [%]	normalised response [25] [%]	normalised response [26] [%]	normalised response [27] [%]	normalised response [28] [%]	normalised response [29] [%]	normalised response [30] [%]	normalised response [31] [%]	normalised response [32] [%]	normalised response [33] [%]	normalised response [34] [%]	normalised response [35] [%]	normalised response [36] [%]	normalised response [37] [%]
N[C@@H](Cc1ccc(N(CCCl)CCCl)cc1)C(=O)O [Melphalan] (12500 nM)	-0.1	0.1	1.23	2.03	0.03	0.01	-0.14	0.21	0.13	0.08	3.52	3.24	0.88	0.13	0.84	0.28	0.28	0.96	0.09	-177	-127	-8.15	-70.3	-143	18.8	-19.4	-37.5	-119	-41.5	-39.4	-19.3	-78.3	-14.5	-17.4	-317	-23.3	-7.06
CN1CCc2c(c3ccccc3n2Cc2ccc(C(=O)NO)cc2)C1 [Tubastatin A] (10000 nM)	87.9	72	77.3	75.4	75	85.3	42.2	87	39.3	98.5	84.1	70.1	72.3	72.5	73.3	57.4	66.4	47.1	79.9	122	49.3	80.1	86.9	87.1	90.1	84.2	-14.9	99.6	99.3	61.3	79.8	80.3	106	91.3	41.7	55.3	93.7
CCc1c(C(=O)C(N)=O)c2c(OCC(=O)O)cccc2n1Cc1ccccc1 [Varespladib] (10000 nM)	99.3	95.7	109	99.2	99.8	95.1	103	105	97.3	100	115	96.7	101	104	98.8	102	97.7	101	91.3	121	102	98.3	99.6	103	102	90	108	110	104	72.7	105	93.6	97.1	101	109	103	97.5
